In patent publication US7547690B2, “Compounds for the treatment of Hepatitis C” (Bristol-Myers Squibb Company, priority 2007, dated 2009):
Like-named read-outs stand apart in the source and are kept apart here.

Legend:
HCV replicon cells = assay: HCV replicon FRET / luciferase assay; type: cell-based; conditions: 50% reduction in FRET or luciferase activity in HCV replicon cells, read-out: EC50
Protocol: FRET Assay Preparation. The HCV FRET screening assay was performed in 96-well cell culture plates. The FRET peptide (Anaspec, Inc.) (Taliani et al., Anal. Biochem. 1996, 240, 60-67) contains a fluorescence donor, EDANS, near one end of the peptide and an acceptor, DABCYL, near the other end. The fluorescence of the peptide is quenched by […] resonance energy transfer (RET) between the donor and the acceptor, but as the NS3 protease cleaves the peptide the products are released from RET quenching and the fluorescence of the donor becomes apparent. The assay reagent was made as follows: 5× cell Luciferase cell culture lysis reagent from Promega (#E153A) diluted to 1× with dH2O, NaCl added to 150 mM final, the FRET peptide diluted to 20 μM final from a 2 mM stock.
To prepare plates, HCV replicon cells, with or without a Renilla luciferase reporter gene, were trypsinized and plated in a 96-well plate with titrated test compounds added in columns 3 through 12; columns 1 and 2 contained a control compound (HCV control inhibitor), and the bottom row contained cells with DMSO only. The plates were then placed in a CO2 incubator at 37° C.
Assays. Subsequent to addition of the test compounds described above (FRET Assay Preparation), at various times the plate was removed and Alamar blue solution (Trek Diagnostics, #00-100) was added to measure cellular toxicity. After reading in a Cytoflour 4000 instrument (PE Biosystems), plates were rinsed with PBS and then used for FRET assay by the addition of 30 ul of the FRET peptide assay reagent described above (FRET Assay Preparation) per well. The plate was then placed into the Cytoflour 4000 instrument which had been set to 340 excite/490 emission, automatic mode for up to 20 cycles and the plate read in a kinetic mode. Typically, the signal to noise using an endpoint analysis after the reads was at least three-fold. Alternatively, after Alamar blue reading, plates were rinsed with PBS, then used for luciferase assay using the Promega Dual-Glo Luciferase Assay System or the Promega EnduRen Live Cell Substrate assay.
Compound analysis was performed by quantification of the relative HCV replicon inhibition and the relative cytotoxicity values. To calculate cytoxicity values, the average Alamar Blue fluorescence signals from the control wells were set as 100% non-toxic. The individual signals in each of the compound test wells were then divided by the average control signal and multiplied by 100% to determine […]. To calculate the HCV replicon inhibition values, an average background value was obtained from the two wells containing the highest amount of HCV control inhibitor at the end of the assay period. These numbers were similar to those obtained from naïve Huh-7 cells. The background numbers were then subtracted from the average signal obtained from the control wells and this number was used as 100% activity. The individual signals in each of the compound test wells were then divided by the averaged control values after background subtraction and multiplied by 100% to determine percent activity. EC50 values were calculated as the concentration which caused a 50% reduction in FRET or luciferase activity. The two numbers generated for the compound plate, percent cytoxicity and percent activity, were used to determine compounds of interest for further analysis.

HCV NS5B = molecular target: T1, HCV NS5B (Hepatitis C virus genotype 1b, UniProt Q9WMX2); assay: HCV NS5B RdRp enzyme assay (standard / modified); type: biochemical; conditions: HCV RdRp genotype 1b; standard or modified assay not specified; read-out: IC50
T1 construct: The protein was expressed with an 18 amino acid C-terminal truncation to enhance the solubility; made in house; host or cells: E. coli BL21(DE3)
T1 sequence (Q9WMX2 2420-2992): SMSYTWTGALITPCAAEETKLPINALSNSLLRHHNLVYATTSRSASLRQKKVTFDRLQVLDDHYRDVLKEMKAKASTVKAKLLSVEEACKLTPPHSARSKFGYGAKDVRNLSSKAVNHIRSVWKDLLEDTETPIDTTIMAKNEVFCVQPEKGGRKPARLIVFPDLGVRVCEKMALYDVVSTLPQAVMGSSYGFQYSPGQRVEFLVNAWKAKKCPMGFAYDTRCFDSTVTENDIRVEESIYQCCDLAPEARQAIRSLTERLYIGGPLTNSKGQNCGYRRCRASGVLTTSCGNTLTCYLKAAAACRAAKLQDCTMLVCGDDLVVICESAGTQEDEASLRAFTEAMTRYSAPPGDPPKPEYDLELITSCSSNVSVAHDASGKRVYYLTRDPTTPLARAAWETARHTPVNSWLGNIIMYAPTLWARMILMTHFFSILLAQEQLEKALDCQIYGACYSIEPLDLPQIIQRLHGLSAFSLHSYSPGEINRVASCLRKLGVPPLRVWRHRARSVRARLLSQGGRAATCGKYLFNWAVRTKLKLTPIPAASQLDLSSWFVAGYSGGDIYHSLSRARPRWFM
Protocol: HCV NS5B RdRp cloning, expression, and purification. The cDNA encoding the NS5B protein of HCV, genotype 1b, was cloned into the pET21a expression vector. The protein was expressed with an 18 amino acid C-terminal truncation to enhance the solubility. The E. coli competent cell line BL21(DE3) was used for expression of the protein. Cultures were grown at 37° C. for ˜4 hours until the cultures reached an optical density of 2.0 at 600 nm. The cultures were cooled to 20° C. and induced with 1 mM IPTG. Fresh ampicillin was added to a final concentration of 50 μg/ml and the cells were grown overnight at 20° C.
Cell pellets (3 L) were lysed for purification to yield 15-24 mgs of purified NS5B. The lysis buffer consisted of 20 mM Tris-HCl, pH 7.4, 500 mM NaCl, 0.5% triton X-100, 1 mM DTT, 1 mM EDTA, 20% glycerol, 0.5 mg/ml lysozyme, 10 mM MgCl2, 15 ug/ml deoxyribonuclease I, and Complete TM protease inhibitor tablets (Roche). After addition of the lysis buffer, frozen cell pellets were resuspended using a tissue homogenizer. To reduce the viscosity of the sample, aliquots of the lysate were sonicated on ice using a microtip attached to a Branson sonicator. The sonicated lysate was centrifuged at 100,000×g for 1 hr at 4° C. and filtered through a 0.2 μm filter unit (Corning).
The protein was purified using two sequential chromatography steps: Heparin sepharose CL-6B and polyU sepharose 4B (Pharmacia). The chromatography buffers were identical to the lysis buffer but contained no lysozyme, deoxyribonuclease I, MgCl2 or protease inhibitor and the NaCl concentration of the buffer was adjusted according to the requirements for charging the protein onto the column. Each column was eluted with a NaCl gradient which varied in length from 5-50 column volumes depending on the column type. After the final chromatography step, the resulting purity of the enzyme is >90% based on SDS-PAGE analysis. The enzyme was aliquoted and stored at −80° C.
Standard HCV NS5B RdRp enzyme assay. HCV RdRp genotype 1b assays were run in a final volume of 60 μl in 96 well plates (Corning 3600). The assay buffer is composed of 20 mM Hepes, pH 7.5, 2.5 mM KCl, 2.5 mM MgCl2, 1 mM DTT, 1.6 U RNAse inhibitor (Promega N2515), 0.01 mg/ml BSA (Sigma B6917), and 2% glycerol. All compounds were serially diluted (3-fold) in DMSO and diluted further in water such that the final concentration of DMSO in the assay was 2%. HCV RdRp genotype 1b enzyme was used at a final concentration of 28 nM. A polyA template was used at 6 nM, and a biotinylated oligo-dT12 primer was used at 180 nM final concentration. Template was obtained commercially (Amersham 27-4110). Biotinylated primer was prepared by Sigma Genosys. 3H-UTP was used at 0.6 μCi (0.29 μM total UTP). Reactions were initiated by the addition of enzyme, incubated at 30 ° C. for 60 min, and stopped by adding 25 μl of 50 mM EDTA containing SPA beads (4 μg/μl, Amersham RPNQ 0007). Plates were read on a Packard Top Count NXT after >1 hr incubation at room temperature.
Modified HCV NS5B RdRp enzyme assay. A modified enzyme assay was performed essentially as described for the standard enzyme assay except for the following: The biotinylated oligo dT12 primer was precaptured on streptavidin-coated SPA beads by mixing primer and beads in assay buffer and incubating at room temperature for one hour. Unbound primer was removed after centrifugation. The primer-bound beads were resuspended in 20 mM Hepes buffer, pH 7.5 and used in the assay at final concentrations of 20 nM primer and 0.67 μg/μl beads. Order of addition in the assay: enzyme (1.75 nM) was added to diluted compound followed by the addition of a mixture of template (0.36 nM), 3H-UTP (0.6 μCi, 0.29 μM), and primer-bound beads, to initiate the reaction; concentrations given are final. Reactions were allowed to proceed for 4 hours at 30° C.
IC50 values for compounds were determined using seven different [I]. […]

SMILES	EC50 (HCV replicon cells; Hepatitis C virus)	IC50 (HCV NS5B)	EC50 (HCV replicon cells)
CCN1C[C@H]2C[C@@H]1CN2C(=O)C12CC1c1cc(OC)ccc1-c1c(C3CCCCC3)c3ccc(C(=O)NS(=O)(=O)N(C)C)cc3n1C2 (some centres unmarked)	2.4 to 500 nM	2.4 to 500 nM	
COc1ccc2c(c1)C1CC1(C(=O)N1C[C@@H]3C[C@H]1CN3C(=O)OC(C)(C)C)Cn1c-2c(C2CCCCC2)c2ccc(C(=O)NS(=O)(=O)N(C)C)cc21 (some centres unmarked)	2.4 to 500 nM	2.4 to 500 nM	
COc1ccc2c(c1)C1CC1(C(=O)N1C[C@@H]3C[C@H]1CN3)Cn1c-2c(C2CCCCC2)c2ccc(C(=O)NS(=O)(=O)C3CC3)cc21 (some centres unmarked)		2.4 to 500 nM	
COc1ccc2c(c1)C1CC1(C(=O)N1C[C@H]3C[C@@H]1CN3C(=O)OC(C)(C)C)Cn1c-2c(C2CCCCC2)c2ccc(C(=O)NS(=O)(=O)N(C)C)cc21 (some centres unmarked)		2.4 to 500 nM	
COc1ccc2c(c1)C1CC1(C(=O)N1C[C@H]3C[C@@H]1CN3CC(C)C)Cn1c-2c(C2CCCCC2)c2ccc(C(=O)NS(=O)(=O)N(C)C)cc21 (some centres unmarked)	2.4 to 500 nM	2.4 to 500 nM	
COc1ccc2c(c1)C1CC1(C(=O)N1C3CC1CN(C)C3)Cn1c-2c(C2CCCCC2)c2ccc(C(=O)NS(=O)(=O)N3CCN(C)CC3)cc21 (centres unmarked)	2.4 to 500 nM	2.4 to 500 nM	
COc1ccc2c(c1)C1CC1(NC(=O)N1CC3CN(Cc4ccccc4)CC(C1)N3Cc1ccccc1)Cn1c-2c(C2CCCCC2)c2ccc(C(=O)NS(=O)(=O)N(C)C)cc21 (centres unmarked)		500 to 5000 nM	
CCN(C)S(=O)(=O)NC(=O)c1ccc2c(C3CCCCC3)c3n(c2c1)CC1(C(=O)N2C4CC2CN(C)C4)CC1c1cc(OC)ccc1-3 (centres unmarked)	2.4 to 500 nM	2.4 to 500 nM	
CCN(CC)S(=O)(=O)NC(=O)c1ccc2c(C3CCCCC3)c3n(c2c1)CC1(C(=O)N2C4CC2CN(C)C4)CC1c1cc(OC)ccc1-3 (centres unmarked)	2.4 to 500 nM	2.4 to 500 nM	
COc1ccc2c(c1)C1CC1(C(=O)N1CCN3CCC1CC3)Cn1c-2c(C2CCCCC2)c2ccc(C(=O)NS(=O)(=O)N3CCC3)cc21 (centres unmarked)	2.4 to 500 nM	2.4 to 500 nM	
COc1ccc2c(c1)C1CC1(C(=O)N1C3CC1CN(C)C3)Cn1c-2c(C2CCCCC2)c2ccc(C(=O)NS(=O)(=O)N3CCOCC3)cc21 (centres unmarked)	2.4 to 500 nM	2.4 to 500 nM	
COc1ccc2c(c1)C1CC1(C(=O)N1C[C@H]3C[C@@H]1CN3CC(C)C)Cn1c-2c(C2CCCCC2)c2ccc(C(=O)NS(=O)(=O)C3CC3)cc21 (some centres unmarked)	2.4 to 500 nM	2.4 to 500 nM	
COc1ccc2c(c1)C1CC1(C(=O)N1CC3CN(C)CC(C1)N3)Cn1c-2c(C2CCCCC2)c2ccc(C(=O)NS(=O)(=O)N(C)C)cc21 (centres unmarked)	2.4 to 500 nM	2.4 to 500 nM	
COc1ccc2c(c1)C1CC1(C(=O)N1CC3(C)CN(C)CC(C)(C1)C3)Cn1c-2c(C2CCCCC2)c2ccc(C(=O)NS(=O)(=O)N(C)C)cc21 (centres unmarked)	2.4 to 500 nM	2.4 to 500 nM	
COc1ccc2c(c1)C1CC1(C(=O)N1CC3(C)CN(C)CC(C)(C1)C3)Cn1c-2c(C2CCCCC2)c2ccc(C(=O)NS(C)(=O)=O)cc21 (centres unmarked)	2.4 to 500 nM	2.4 to 500 nM	
COc1ccc2c(c1)C1CC1(S(=O)(=O)N1C3CC1CN(C)C3)Cn1c-2c(C2CCCCC2)c2ccc(C(=O)NS(=O)(=O)C3CC3)cc21 (centres unmarked)	2.4 to 500 nM	2.4 to 500 nM	
COc1ccc2c(c1)C1CC1(S(=O)(=O)N1C3CC1CN(C)C3)Cn1c-2c(C2CCCCC2)c2ccc(C(=O)NS(=O)(=O)N3CCOCC3)cc21 (centres unmarked)	2.4 to 500 nM	2.4 to 500 nM	
COc1ccc2c(c1)C1CC1(C(=O)N1C3CC1CN(C)C3)Cn1c-2c(C2CCCCC2)c2ccc(C(=O)NS(=O)(=O)C(C)C)cc21 (centres unmarked)	2.4 to 500 nM	2.4 to 500 nM	
COc1ccc2c(c1)C1CC1(C(=O)N1CC3CN(Cc4ccccc4)CC(C1)N3Cc1ccccc1)Cn1c-2c(C2CCCCC2)c2ccc(C(=O)NS(=O)(=O)N(C)C)cc21 (centres unmarked)	500 to 5000 nM	2.4 to 500 nM	
COc1ccc2c(c1)[C@@H]1C[C@]1(C(=O)N1CC3CC(C1)N3C)Cn1c-2c(C2CCCCC2)c2ccc(C(=O)NS(=O)(=O)N(C)C)cc21	2.4 to 500 nM	2.4 to 500 nM	
COc1ccc2c(c1)C1CC1(C(=O)N1CC3COCC(C1)N3Cc1ccccc1)Cn1c-2c(C2CCCCC2)c2ccc(C(=O)NS(=O)(=O)N(C)C)cc21 (centres unmarked)	2.4 to 500 nM	2.4 to 500 nM	
COc1ccc2c(c1)C1CC1(C(=O)N1CC3CN(C)CC(C1)N3C)Cn1c-2c(C2CCCCC2)c2ccc(C(=O)NS(=O)(=O)N(C)C)cc21 (centres unmarked)	2.4 to 500 nM	2.4 to 500 nM	
COc1ccc2c(c1)C1CC1(C(=O)N1CC3CN(C)CC(C1)N3C(C)=O)Cn1c-2c(C2CCCCC2)c2ccc(C(=O)NS(=O)(=O)N(C)C)cc21 (centres unmarked)	2.4 to 500 nM	2.4 to 500 nM	
COc1ccc2c(c1)C1CC1(C(=O)N1C3CNCC1CN(C)C3)Cn1c-2c(C2CCCCC2)c2ccc(C(=O)NS(=O)(=O)N(C)C)cc21 (centres unmarked)		2.4 to 500 nM	
CCC(C)S(=O)(=O)NC(=O)c1ccc2c(C3CCCCC3)c3n(c2c1)CC1(C(=O)N2C4COCC2CN(C)C4)CC1c1cc(OC)ccc1-3 (centres unmarked)		2.4 to 500 nM	
COc1ccc2c(c1)[C@@H]1C[C@]1(C(=O)N1CC3CCC1CN3C)Cn1c-2c(C2CCCCC2)c2ccc(C(=O)NS(=O)(=O)C(C)C)cc21 (some centres unmarked) [drawing 128]	2.4 to 500 nM		
COc1ccc2c(c1)[C@@H]1C[C@]1(C(=O)N1CC3CCC1CN3C)Cn1c-2c(C2CCCCC2)c2ccc(C(=O)NS(=O)(=O)C(C)C)cc21 (some centres unmarked) [drawing 129]			2.4 to 500 nM
